Measured values: patent publication US20100167397A1, “ENDOCRINE CELL LINES AND METHOD OF USING THE SAME” (KYOWA HAKKO KOGYO CO., LTD., priority 2002, published 2010)
Numbering of substitutions follows the chain as printed. Names and notes keep the numbering of the source.

Tests used:
[1] = system: gene expression via CRE; assay: CRE-luciferase reporter stimulation in Namalwa KJM-1 / KJMGER8 cells carrying pACREpluc or pACRERluc; format: cell-based, human; conditions: Namalwa KJM-1 with pACREpluc, 5 hours
Protocol: A reporter plasmid pACREpluc was dissolved in a TE buffer so as to make 1 μg/μl and the plasmid was transfected to Namalwa KJM-1 cells by an electroporation method [Cytotechnology, 3, 133 (1990)] using 4 μg to 6×10^6 cells to give transformants.
The transformants were subcultured in RPMI 1640-ITPSG medium containing hygromycin B (300 μg/ml).
In order to confirm whether gene expression via CRE took place, the transformants were stimulated under the following condition using 5′-N-ethylcarboxamide adenosine (NECA: manufactured by Sigma) which is an agonist of type 2a adenosine receptor (A2a), forskolin (manufactured by Sigma) which is an activator for adenylate cyclase or A23187 (manufactured by Research Biochemicals International) which is a calcium ionophore.
Thus, the above stable transformants were dispensed in an amount of 1×10^5 cells per well of a 48-well plate, then NECA (final concentration 100 nmol/L), forskolin (final concentration 100 μmol/L) or A23187 (final concentration 10 μmol/L) was added and stimulation was conducted by incubating in a CO2 incubator for 5 hours.
Accordingly, when the cells are stimulated by any substance, it is believed to be preferred to measure the activity after 6 hours from the stimulation.
After the incubation, firefly luciferase activity in each well was measured using the method mentioned in (4) of Example 18. With regard to a device for the measurement, Micro Lumat LB96P (manufactured by Berthold) was used. Seventeen clones having high activity were selected.
The 17 clones were used, stimulation with NECA was applied by the same manner as in the above (2), comparison with the case where no stimulation with NECA was conducted and 8 clones where luciferase activity rose to an extent of 60-fold or more were selected. Such 8 clones were named GBC1 to GBC8 respectively.
After that, coelenterazine h (Molecular Probes) (final concentration 250 nmol/L) was added to measure the activity of Renilla reniformis luciferase. For the measurement of the activity, a Wallac 1420 ARVOsx Multilable Counter (manufactured by Wallac Berthold Japan) was used. Nine clones having high activity were selected. The 9 clones were named GBCR1 to GBCR9, respectively.
With regard to the 9 clones, stimulation with NECA was conducted and, as compared with the case no stimulation with NECA was done, 2 clones where the activity of Renilla reniformis luciferase increased to an extent of not less than 18-fold were selected. The 2 clones were named GBCR1 and GBCR2, respectively.

[2] = system: CRE reporter in GBCRC6; assay: Constitutive activity of GPCR, Method 1 (GBCRC6 host, Renilla reniformis luciferase, induction ratio with 17β-estradiol); format: cell-based, human; conditions: for Constitutive Activity (induction ratio): Method 1, GBCRC6 host, activity with 17β-estradiol divided by activity without, control plasmid about 1; for Constitutive Activity: method 1 of (2) of Example 22, induction ratio of reporter activity with 17β-estradiol; for induction ratio (constitutive activity): method of (2) of Example 22 utilizing GBCRC6 as a host
Protocol: After the incubation, coelenterazine h (Molecular Proves) (final concentration 250 nmol/L) was added to measure the activity of Renilla reniformis luciferase. For the activity measurement, a Wallac 1420 ARVOsx Multilabel Counter (manufactured by Wallac Berthold Japan) or a VIM camera (Argus-50/2D Luminometer/MP; manufactured by Hamamatsu Photonics) was used.
In each method, the induction ratio of the cells transfected with the control plasmid was about 1. It is judged that the higher the induction ratio of the cells to which a GPCR expression plasmid was transfected, the stronger the constitutive activity of the GPCR.

In the case of `CNc1ccc2oc(C[C@H]3O[C@@]4(CC[C@H]3C)O[C@H]([C@H](C)C(=O)c3ccc[nH]3)[C@H](C)C[C@H]4C)nc2c1C(=O)O` [A23187], the “change of firefly luciferase activity” value ([1]; A23187 10 μmol/L) is reported as “rarely changed”.

For GPR 35, the “Constitutive Activity (induction ratio)” value [2] was 25-fold.

GPR 61 was tested, and the “Constitutive Activity (induction ratio)” value [2] was 12-fold.

`C=C[C@@]1(C)CC(=O)[C@]2(O)[C@@]3(C)[C@@H](O)CCC(C)(C)[C@@H]3[C@H](O)[C@H](OC(C)=O)[C@@]2(C)O1` [forskolin] was tested, and the “increase of firefly luciferase activity” value ([1]; forskolin 100 μmol/L) was “about 10 fold”.

With GPCR 25 the “Constitutive Activity (induction ratio)” value [2] was 20-fold.

In the case of GPR 88, the “Constitutive Activity (induction ratio)” value [2] is reported as 15-fold.

OGR1 was tested, and the “Constitutive Activity (induction ratio)” value [2] was 3.6-fold.

With GPR 4 the “Constitutive Activity (induction ratio)” value [2] was 40-fold.

With “OGR1S221N/D118A: OGR1S221N mutant GPCR with 118th aspartic acid substituted with alanine; SEQ ID NO: 189” the “Constitutive Activity” value [2] was 56-fold.

GPR 6 was tested, and the “Constitutive Activity (induction ratio)” value [2] was 63-fold.

With GPR 92 the “Constitutive Activity (induction ratio)” value [2] was 11-fold.

OGR1S221N was tested, and the “Constitutive Activity (induction ratio)” value [2] was 12.7-fold.

In the case of GPR 62, the “Constitutive Activity (induction ratio)” value [2] is reported as 12-fold.

GPR 30 was tested, and the “Constitutive Activity (induction ratio)” value [2] was 27-fold.

B1: PGMO334E135F: mutant where the 135th glutamic acid of the PGMO334 polypeptide was substituted with phenylalanine; SEQ ID NO: 193 (protein)
chain: MSPECARAAGDAPLRSLEQANRTRFPFFSDVKGDHRLVLAAVETTVLVLIFAVSLLGNVCALVLVARRRRRGATACLVLNLFCADLLFISAIPLVLAVRWTEAWLLGPVACHLLFYVMTLSGSVTILTLAAVSLFRMVCIVHLQRGVRGPGRRARAVLLALIWGYSAVAALPLCVFFRVVPQRLPGADQEISICTLIWPTIPGEISWDVSFVTLNFLVPGLVIVISYSKILQITKASRKRLTVSLAYSESHQIRVSQQDFRLFRTLFLLMVSFFIMWSPIIITILLILIQNFKQDLVIWPSLFFWVVAFTFANSALNPILYNMTLCRNEWKKIFCCFWFPEKGAILTDTSVKRNDLSIISG
modifications: PGMO334E135F
In the case of B1, the “induction ratio (constitutive activity)” value [2] is reported as “about 3 fold”.

B2: PGMO334E135Q: mutant where the 135th glutamic acid of PGMO334 polypeptide was substituted with glutamine; SEQ ID NO: 194 (protein)
chain: B1 chain with F135Q
modifications: PGMO334E135Q
With B2 the “induction ratio (constitutive activity)” value [2] was “about 3 fold”.

B3: PGMO334E135A: mutant where the 135th glutamic acid of PGMO334 polypeptide was substituted with alanine; SEQ ID NO: 195 (protein)
chain: B1 chain with F135A
modifications: PGMO334E135A
For B3, the “induction ratio (constitutive activity)” value [2] was “about 14 fold”.

B4: PGMO334D259S: mutant where the 259th aspartic acid of PGMO334 polypeptide was substituted with serine; SEQ ID NO: 196 (protein)
chain: B1 chain with F135E, D259S
modifications: PGMO334D259S
B4 was tested, and the “induction ratio (constitutive activity)” value [2] was “about 5 fold”.

B5: GPR43R217P: mutant where the 217th arginine of GPR43 polypeptide was substituted with proline; SEQ ID NO: 197 (protein)
chain: MLPDWKSSLILMAYIIIFLTGLPANLLALRAFVGRIRQPQPAPVHILLLSLTLADLLLLLLLPFKIIEAASNFRWYLPKVVCALTSFGFYSSIYCSTWLLAGISIERYLGVAFPVQYKLSRRPLYGVIAALVAWVMSFGHCTIVIIVQYLNTTEQVRSGNEITCYENFTDNQLDVVLPVRLELCLVLFFIPMAVTIFCYWRFVWIMLSQPLVGAQRPRRAVGLAVVTLLNFLVCFGPYNVSHLVGYHQRKSPWWRSIAVVFSSLNASLDPLLFYFSSSVVRRAFGRGLQVLRNQGSSLLGRRGKDTAEGTNEDRGVGQGEGMPSSDFTTE
modifications: GPR43R217P
B5 was tested, and the “induction ratio (constitutive activity)” value [2] was “about 2 fold”.

B6: GPR43R217PE106D: GPR43R217P mutant where the 106th glutamic acid was substituted with aspartic acid; SEQ ID NO: 198 (protein)
chain: B5 chain with E106D
modifications: GPR43R217P/E106D
For B6, the “induction ratio (constitutive activity)” value [2] was “about 17 fold”.

B7: G2A (protein, UniProt Q9UNW8 1-380, looked up)
Probable G-protein coupled …: MCPMLLKNGYNGNATPVTTTAPWASLGLSAKTCNNVSFEESRIVLVVVYSAVCTLGVPANCLTAWLALLQVLQGNVLAVYLLCLALCELLYTGTLPLWVIYIRNQHRWTLGLLACKVTAYIFFCNIYVSILFLCCISCDRFVAVVYALESRGRRRRRTAILISACIFILVGIVHYPVFQTEDKETCFDMLQMDSRIAGYYYARFTVGFAIPLSIIAFTNHRIFRSIKQSMGLSAAQKAKVKHSAIAVVVIFLVCFAPYHLVLLVKAAAFSYYRGDRNAMCGLEERLYTASVVFLCLSTVNGVADPIIYVLATDHSRQEVSRIHKGWKEWSMKTDVTRLTHSRDTEELQSPVALADHYTFSRPVHPPGSPCPAKRLIEESC
In the case of B7, the “Constitutive Activity (induction ratio)” value [2] is reported as 20-fold.

B8: GPR35D113A: GPR35 mutant GPCR, 113th aspartic acid substituted with alanine; SEQ ID NO: 191 (protein)
chain: MNGTYNTCGSSDLTWPPAIKLGFYAYLGVLLVLGLLLNSLALWVFCCRMQQWTETRIYMTNLAVADLCLLCTLPFVLHSLRDTSDTPLCQLSQGIYLTNRYMSISLVTAIAVARYVAVRHPLRARGLRSPRQAAAVCAVLWVLVIGSLVARWLLGIQEGGFCFRSTRHNFNSMRFPLLGFYLPLAVVVFCSLKVVTALAQRPPTDVGQAEATRKAARMVWANLLVFVVCFLPLHVGLTVRLAVGWNACALLETIRRALYITSKLSDANCCLDAICYYYMAKEFQEASALAVAPRAKAHKSQDSLCVTLA
modifications: GPR35D113A
In the case of B8, the “Constitutive Activity” value [2] is reported as 97-fold.

B9: GPCR25D111A: GPCR25 mutant GPCR, 111th aspartic acid substituted with alanine; SEQ ID NO: 192 (protein)
chain: MNSTCIEEQHDLDHYLFPIVYIFVIIVSIPANIGSLCVSFLQPKKESELGIYLFSLSLSDLLYALTLPLWIDYTWNKDNWTFSPALCKGSAFLMYMKFYSSTAFLTCIAVARYLAVVYPLKFFFLRTRRIALMVSLSIWILETIFNAVMLWEDETVVEYCDAEKSNFTLCYDKYPLEKWQINLNLFRTCTGYAIPLVTILICNRKVYQAVRHNKATENKEKKRIIKLLVSITVTFVLCFTPFHVMLLIRCILEHAVNFEDHSNSGKRTYTMYRITVALTSLNCVADPILYCFVTETGRYDMWNILKFCTGRCNTSQRQRKRILSVSTKDTMELEVLE
modifications: GPCR25D111A
For B9, the “Constitutive Activity” value [2] was 35-fold.

B10: RE2D124A: RE2 mutant GPCR, 124th aspartic acid substituted with alanine; SEQ ID NO: 190 (protein)
chain: MSLNSSLSCRKELSNLTEEEGGEGGVIITQFIAIIVITIFVCLGNLVIVVTLYKKSYLLTLSNKFVFSLTLSNFLLSVLVLPFVVTSSIRREWIFGVVWCNFSALLYLLISSASMLTLGVIAIARYYAVLYPMVYPMKITGNRAVMALVYIWLHSLIGCLPPLFGWSSVEFDEFKWMCVAAWHREPGYTAFWQIWCALFPFLVMLVCYGFIFRVARVKARKVHCGTVVIVEEDAQRTGRKNSSTSTSSSGSRRNAFQGVVYSANQCKALITILVVLGAFMVTWGPYMVVIASEALWGKSSVSPSLETWATWLSFASAVCHPLIYGLWNKTVRKELLGMCFGDRYYREPFVQRQRTSRLFSISNRITDLGLSPHLTALMAGGQPLGHSSSTGDTGFSCSQDSGNLRAL
modifications: RE2D124A
In the case of B10, the “Constitutive Activity” value [2] is reported as 32-fold.
